Results from publication PMC7531004, “Discovery of gramicidin A analogues with altered activities by multidimensional screening of a one-bead-one-compound library” (Nature Communications, 2020).
Where a SMILES comes first, the peptide text is derived from it. [ ]: non-standard residue; d: D form. The star is where a group is joined. NHCH2CH2OH = OCCN*; For = O=C*

Experiments:
[1] = H+/Na+ transport assay of bead-derived peptides (one-point); type: biochemical; set-up: key: relative activity; mean of two control wells = 1.00; details: bead-derived peptide solution, EYPC/EYPG LUVs;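 also: relative to parent gramicidin A activity set to 1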
How it was run: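 Pyranine (1.0 mM)-loaded LUVs containing egg yolk phosphatidylglycerol were prepared by film hydration, sonication and extrusion, then mixed with diluted bead-derived peptide in 96-well format and vortexed 30 min at room temperature. Fluorescence was normalized between untreated LUVs (0%) and Triton X-100 lysis (100%).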

[2] = system: Streptococcus pyogenes SSI-9; assay: Antibacterial activity assay of bead-derived peptides (three concentrations); type: cell-based; set-up: key: +++: inhibition by the 640-fold diluted peptide solution; ++: inhibition by the 160-fold diluted solution; +: inhibition by the 40-fold diluted solution; -: no inhibition; details: S. pyogenes, bead-derived peptide solution, three concentrations
How it was run: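 First, each peptide stock was diluted 4- and 16-fold in DMSO; next, the three solutions were mixed with S. pyogenes SSI-9 suspension (2 × 10^5 CFU) in cation-adjusted Mueller Hinton Broth plus 5% laked horse blood; finally, plates stood 18 h at 37 °C before checking for grown-cell precipitation.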

[3] = system: P388 mouse leukemia cells; details: 92 h
How it was run: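 Peptide stocks diluted 250× in growth medium; P388 cells 1 × 10^4 cells/mL final; 37 °C, 5% CO2, 92 h. WST-1 + 1-methoxy PMS, 4 h, A415. Output: % viability.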

| SMILES | H+/Na+ transport activity normalized against the value of 1 (1.00) [1] | antibacterial activity [2] | cell viability/% [3] [%] |
| --- | --- | --- | --- |
| CC(C)C[C@@H](NC(=O)[C@H](C)NC(=O)[C@H](NC(=O)[C@H](C)NC(=O)CNC(=O)[C@@H](NC=O)C(C)C)[C@H](C)O)C(=O)N[C@H](C(=O)N[C@H](CC(C)C)C(=O)N[C@@H](Cc1c[nH]c2ccccc12)C(=O)N[C@H](CC(C)C)C(=O)N[C@@H](Cc1c[nH]c2ccccc12)C(=O)N[C@@H](C(=O)N[C@@H](Cc1c[nH]c2ccccc12)C(=O)N[C@H](CC(C)C)C(=O)N[C@@H](Cc1c[nH]c2ccccc12)C(=O)NCCO)C(C)C)C(C)C [compound 5329] (For-VGA[dT]A[dL]V[dL]W[dL]W[dV]W[dL]W-NHCH2CH2OH) | 1.26 | - | 100.0 |
| CC(C)C[C@@H](NC(=O)[C@H](C)NC(=O)CNC(=O)[C@@H](NC=O)C(C)C)C(=O)N[C@@H](C)C(=O)N[C@H](CC(C)C)C(=O)N[C@H](C(=O)N[C@H](CC(C)C)C(=O)N[C@@H](Cc1c[nH]c2ccccc12)C(=O)N[C@@H](C(=O)N[C@@H](Cc1c[nH]c2ccccc12)C(=O)N[C@@H](C(=O)N[C@@H](Cc1c[nH]c2ccccc12)C(=O)N[C@@H](C(=O)N[C@@H](Cc1c[nH]c2ccccc12)C(=O)NCCO)C(C)C)C(C)C)C(C)C)C(C)C [compound 7408] (For-VGA[dL]A[dL]V[dL]W[dV]W[dV]W[dV]W-NHCH2CH2OH) | 1.06 | - | 19.4 |
| CC(C)C[C@@H](NC(=O)[C@H](C)NC(=O)CNC(=O)[C@@H](NC=O)C(C)C)C(=O)N[C@@H](C)C(=O)N[C@@H](C(=O)N[C@H](C(=O)N[C@H](CC(C)C)C(=O)N[C@@H](Cc1c[nH]c2ccccc12)C(=O)N[C@H](CC(C)C)C(=O)N[C@@H](Cc1c[nH]c2ccccc12)C(=O)N[C@H](CC(C)C)C(=O)N[C@@H](Cc1c[nH]c2ccccc12)C(=O)N[C@H](CC(C)C)C(=O)N[C@@H](Cc1c[nH]c2ccccc12)C(=O)NCCO)C(C)C)C(C)C [compound 9628] (For-VGA[dL]A[dV]V[dL]W[dL]W[dL]W[dL]W-NHCH2CH2OH) | 1.16 | + | 0.0 |
| CC(C)C[C@@H](NC(=O)[C@H](C)NC(=O)CNC(=O)[C@@H](NC=O)C(C)C)C(=O)N[C@@H](C)C(=O)N[C@H](CC(C)C)C(=O)N[C@H](C(=O)N[C@H](CC(C)C)C(=O)N[C@@H](Cc1c[nH]c2ccccc12)C(=O)N[C@H](CC(C)C)C(=O)N[C@@H](Cc1c[nH]c2ccccc12)C(=O)N[C@@H](C(=O)N[C@@H](Cc1c[nH]c2ccccc12)C(=O)N[C@@H](C(=O)N[C@@H](Cc1c[nH]c2ccccc12)C(=O)NCCO)C(C)C)C(C)C)C(C)C [compound 2718] (For-VGA[dL]A[dL]V[dL]W[dL]W[dV]W[dV]W-NHCH2CH2OH) | 1.11 | + | 0.3 |
| CNC(=O)C[C@@H](NC(=O)[C@@H](NC(=O)[C@@H](CC(C)C)NC(=O)[C@H](C)NC(=O)[C@@H](CC(C)C)NC(=O)[C@H](C)NC(=O)CNC(=O)[C@@H](NC=O)C(C)C)C(C)C)C(=O)N[C@@H](Cc1c[nH]c2ccccc12)C(=O)N[C@H](CC(C)C)C(=O)N[C@@H](Cc1c[nH]c2ccccc12)C(=O)N[C@H](CC(C)C)C(=O)N[C@@H](Cc1c[nH]c2ccccc12)C(=O)N[C@H](CC(C)C)C(=O)N[C@@H](Cc1c[nH]c2ccccc12)C(=O)NCCO [compound 8061] (For-VGA[dL]A[dL]V[dD](NHMe)W[dL]W[dL]W[dL]W-NHCH2CH2OH) | 1.05 | - | 100.0 |
| CC(C)C[C@@H](NC(=O)[C@H](C)NC(=O)CNC(=O)[C@@H](NC=O)C(C)C)C(=O)N[C@@H](C)C(=O)N[C@H](CC(C)C)C(=O)N[C@H](C(=O)N[C@@H](C(=O)N[C@@H](Cc1c[nH]c2ccccc12)C(=O)N[C@@H](C(=O)N[C@@H](Cc1c[nH]c2ccccc12)C(=O)N[C@@H](C(=O)N[C@@H](Cc1c[nH]c2ccccc12)C(=O)N[C@@H](C(=O)N[C@@H](Cc1c[nH]c2ccccc12)C(=O)NCCO)C(C)C)C(C)C)C(C)C)C(C)C)C(C)C [compound 5488] (For-VGA[dL]A[dL]V[dV]W[dV]W[dV]W[dV]W-NHCH2CH2OH) | 1.23 | + | 36.4 |
| CC(C)C[C@@H](NC(=O)[C@H](Cc1c[nH]c2ccccc12)NC(=O)[C@H](NC(=O)[C@H](Cc1c[nH]c2ccccc12)NC(=O)[C@H](NC(=O)[C@H](Cc1c[nH]c2ccccc12)NC(=O)[C@H](NC(=O)[C@@H](NC(=O)[C@H](NC(=O)[C@H](C)NC(=O)[C@H](NC(=O)[C@H](C)NC(=O)CNC(=O)[C@@H](NC=O)C(C)C)C(C)C)C(C)C)C(C)C)C(C)C)C(C)C)C(C)C)C(=O)N[C@@H](Cc1c[nH]c2ccccc12)C(=O)NCCO [compound 2182] (For-VGA[dV]A[dV]V[dV]W[dV]W[dV]W[dL]W-NHCH2CH2OH) | 1.28 | ++ | 100.0 |
| CNC(=O)C[C@@H](NC(=O)[C@H](Cc1c[nH]c2ccccc12)NC(=O)[C@H](NC(=O)[C@H](Cc1c[nH]c2ccccc12)NC(=O)[C@H](NC(=O)[C@H](Cc1c[nH]c2ccccc12)NC(=O)[C@@H](CC(C)C)NC(=O)[C@@H](NC(=O)[C@H](NC(=O)[C@H](C)NC(=O)[C@H](NC(=O)[C@H](C)NC(=O)CNC(=O)[C@@H](NC=O)C(C)C)C(C)C)C(C)C)C(C)C)C(C)C)C(C)C)C(=O)N[C@@H](Cc1c[nH]c2ccccc12)C(=O)NCCO [compound 7271] (For-VGA[dV]A[dV]V[dL]W[dV]W[dV]W[dD](NHMe)W-NHCH2CH2OH) | 1.02 | - | 10.6 |
| CNC(=O)C[C@@H](NC(=O)[C@@H](NC(=O)[C@H](NC(=O)[C@H](C)NC(=O)[C@@H](CC(C)C)NC(=O)[C@H](C)NC(=O)CNC(=O)[C@@H](NC=O)C(C)C)C(C)C)C(C)C)C(=O)N[C@@H](Cc1c[nH]c2ccccc12)C(=O)N[C@H](CC(C)C)C(=O)N[C@@H](Cc1c[nH]c2ccccc12)C(=O)N[C@@H](C(=O)N[C@@H](Cc1c[nH]c2ccccc12)C(=O)N[C@H](CC(C)C)C(=O)N[C@@H](Cc1c[nH]c2ccccc12)C(=O)NCCO)C(C)C [compound 10669] (For-VGA[dL]A[dV]V[dD](NHMe)W[dL]W[dV]W[dL]W-NHCH2CH2OH) | 1.11 | - | 55.2 |
| CC(C)C[C@@H](NC(=O)[C@H](C)NC(=O)CNC(=O)[C@@H](NC=O)C(C)C)C(=O)N[C@@H](C)C(=O)N[C@H](CC(C)C)C(=O)N[C@H](C(=O)N[C@H](CC(C)C)C(=O)N[C@@H](Cc1c[nH]c2ccccc12)C(=O)N[C@@H](C(=O)N[C@@H](Cc1c[nH]c2ccccc12)C(=O)N[C@H](CC(C)C)C(=O)N[C@@H](Cc1c[nH]c2ccccc12)C(=O)N[C@@H](C(=O)N[C@@H](Cc1c[nH]c2ccccc12)C(=O)NCCO)C(C)C)C(C)C)C(C)C [compound 1751] (For-VGA[dL]A[dL]V[dL]W[dV]W[dL]W[dV]W-NHCH2CH2OH) | 1.05 | - | 0.0 |
| CC(C)C[C@@H](NC(=O)[C@H](C)NC(=O)CNC(=O)[C@@H](NC=O)C(C)C)C(=O)N[C@@H](C)C(=O)N[C@H](CC(C)C)C(=O)N[C@H](C(=O)N[C@@H](C(=O)N[C@@H](Cc1c[nH]c2ccccc12)C(=O)N[C@@H](C(=O)N[C@@H](Cc1c[nH]c2ccccc12)C(=O)N[C@H](CC(C)C)C(=O)N[C@@H](Cc1c[nH]c2ccccc12)C(=O)N[C@H](CC(C)C)C(=O)N[C@@H](Cc1c[nH]c2ccccc12)C(=O)NCCO)[C@H](C)O)C(C)C)C(C)C [compound 8342] (For-VGA[dL]A[dL]V[dV]W[dT]W[dL]W[dL]W-NHCH2CH2OH) | 1.00 | - | 54.5 |
| CC(C)C[C@@H](NC(=O)[C@@H](NC(=O)[C@H](NC(=O)[C@H](C)NC(=O)[C@H](NC(=O)[C@H](C)NC(=O)CNC(=O)[C@@H](NC=O)C(C)C)[C@H](C)O)C(C)C)C(C)C)C(=O)N[C@@H](Cc1c[nH]c2ccccc12)C(=O)N[C@@H](C(=O)N[C@@H](Cc1c[nH]c2ccccc12)C(=O)N[C@@H](C(=O)N[C@@H](Cc1c[nH]c2ccccc12)C(=O)N[C@@H](C(=O)N[C@@H](Cc1c[nH]c2ccccc12)C(=O)NCCO)C(C)C)C(C)C)C(C)C [compound 5623] (For-VGA[dT]A[dV]V[dL]W[dV]W[dV]W[dV]W-NHCH2CH2OH) | 1.11 | - | 80.0 |
| CC(C)C[C@@H](NC(=O)[C@H](Cc1c[nH]c2ccccc12)NC(=O)[C@H](NC(=O)[C@H](Cc1c[nH]c2ccccc12)NC(=O)[C@@H](CC(C)C)NC(=O)[C@@H](NC(=O)[C@H](NC(=O)[C@H](C)NC(=O)[C@H](NC(=O)[C@H](C)NC(=O)CNC(=O)[C@@H](NC=O)C(C)C)[C@H](C)O)C(C)C)C(C)C)C(C)C)C(=O)N[C@@H](Cc1c[nH]c2ccccc12)C(=O)N[C@@H](C(=O)N[C@@H](Cc1c[nH]c2ccccc12)C(=O)NCCO)C(C)C [compound 11238] (For-VGA[dT]A[dV]V[dL]W[dV]W[dL]W[dV]W-NHCH2CH2OH) | 1.03 | - | 64.7 |
